Bounds are passed on as bounds.

The target in the assay is T1, Recombinant human TMPRSS2 protein (106-492 aa) (Homo sapiens, UniProt O15393).
T1 construct: Human TMPRSS2-(AA 106-492)-; purchased CusaBio CSB-YP023924HU; host or cells: yeast
T1 sequence (O15393 106-492): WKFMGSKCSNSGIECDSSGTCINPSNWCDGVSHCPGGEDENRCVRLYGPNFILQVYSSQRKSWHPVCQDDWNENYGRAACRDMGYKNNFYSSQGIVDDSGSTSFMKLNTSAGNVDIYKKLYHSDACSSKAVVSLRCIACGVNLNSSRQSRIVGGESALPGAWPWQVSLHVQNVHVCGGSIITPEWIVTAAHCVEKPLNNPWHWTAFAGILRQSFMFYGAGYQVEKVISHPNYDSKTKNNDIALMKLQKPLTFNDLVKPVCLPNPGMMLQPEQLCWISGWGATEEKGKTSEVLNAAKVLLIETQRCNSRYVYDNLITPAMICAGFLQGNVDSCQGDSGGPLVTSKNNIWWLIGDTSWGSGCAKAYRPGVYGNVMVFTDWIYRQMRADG
In words: TMPRSS2 Assay 1 (Example 41), fluorogenic Boc-Gln-Ala-Arg-AMC cleavage. In kind it is biochemical. The settings on record: TMPRSS2 10 nM, substrate 25 μM, 20 min pre-incubation. The protocol:
The enzyme (TMPRSS2, CusaBio cat #CSB-YP023924HU. Recombinant human TMPRSS2 protein (106-492 aa)N-terminal 6×His-tagged (“6×His” disclosed as SEQ ID NO: 4), expressed in yeast cells; MW=44.8 kDa, lyophilized from 20 mM: Tris HCl, 0.5 M NaCl, 6% Trehalose, pH 8.0, >85% purity as determined by SDS-PAGE. Uniprot: 015393; 10 nM in the reaction) and substrate (Boc-Gln-Ala-Arg-AMC; Enzo Cat #BML-P237-0005, MW=581.76 Da. 25 μM in the reaction) were prepared in Reaction Buffer (50 mM Tris-HCl pH 8, 150 mM NaCl, 0.005% Brij35, 1% DMSO). After the enzyme solution was delivered into the reaction well, the compounds in DMSO were delivered to the reaction mixture by using Acoustic Technology (Echo 550, LabCyte Inc. Sunnyvale, CA) in nanoliter range. After 20 min pre-incubation, the substrate solution was delivered into the reaction well to initiate the reaction. The enzyme activities were monitored every 5 min as a time-course measurement of the increase in fluorescence signal from fluorescently-labeled peptide substrate for 120 min. at room temperature. Data was analyzed by taking slope*(signal/time) of linear portion of measurement. The slope was calculated using Excel, and the curve fits were performed using Prism software.
Broadly, the IC50 is the point on the concentration scale where inhibition reaches its midpoint. With `N=C(N)c1cccc(CC(NS(=O)(=O)c2ccccc2)c2nc3cccc(Cl)c3s2)c1` (centres unmarked) [Compound 13, 3-[2-Benzenesulfonamido-2-(7-chloro-1,3-benzothiazol-2-yl)ethyl]benzene-1-carboximidamide], the IC50 is under 10 µM. Under `N=C(N)c1cccc(CC(NS(=O)(=O)c2ccccc2)c2nc3cnccc3s2)c1` (centres unmarked) [Compound 18, 3-(2-Benzenesulfonamido-2-{[1,3]thiazolo[4,5-c]pyridin-2-yl}ethyl)benzene-1-carboximidamide] stands under 10 µM.

For `CN(C)CCN(C)c1cccc2nc(C(Cc3cccc(C(=N)N)c3)NS(=O)(=O)c3ccccc3)sc12` (centres unmarked) [Compound 16, 3-[2-Benzenesulfonamido-2-(7-{[2-(dimethylamino)ethyl](methyl)amino}-1,3-benzothiazol-2-yl)ethyl]benzene-1-carboximidamide], the IC50 was over 10 µM. Regarding `N=C(N)c1cccc(CC(NS(=O)(=O)c2ccccc2)c2nc3ccc(O)cc3s2)c1` (centres unmarked) [Compound 20, 3-[2-(benzenesulfonamido)-2-(6-hydroxy-1,3-benzothiazol-2-yl)ethyl]benzamidine], the IC50 is under 10 µM. Under `N=C(N)c1cccc(CC(NS(=O)(=O)c2cccc(Br)c2)c2nccs2)c1` (centres unmarked) [Compound 4, 3-[2-(3-Bromobenzenesulfonamido)-2-(1,3-thiazol-2-yl)ethyl]benzene-1-carboximidamide] stands over 10 µM. Then `Cn1cnnc1[C@H](Cc1cccc(C(=N)N)c1)NS(=O)(=O)c1cccc(-c2ccc(Cl)cc2Cl)c1` [Compound 6, 3-[(2S)-2-{2′,4′-Dichloro-[1,1′-biphenyl]-3-sulfonamido}-2-(4-methyl-4H-1,2,4-triazol-3-yl)ethyl]benzene-1-carboximidamide], with over 10 µM; and `N=C(N)c1cccc(CC(NS(=O)(=O)c2ccccc2)c2nc3ccc(C(F)(F)F)cc3s2)c1` (single isomer, unassigned) [14 (enantiomer 1)], with over 10 µM. Consider `N=C(N)c1cccc(C[C@H](NS(=O)(=O)c2ccccc2)c2nc3ccc(C(F)(F)F)cc3s2)c1` [14 (batch 1), 3-[(2S)-2-Benzenesulfonamido-2-[6-(trifluoromethyl)-1,3-benzothiazol-2-yl]ethyl]benzene-1-carboximidamide], for which the IC50 is under 10 µM. For `N=C(N)c1cccc(CC(NS(=O)(=O)c2ccccc2)c2nc3cc(C(F)(F)F)ccc3s2)c1` (single isomer, unassigned) [12 (enantiomer 1), 3-{2-Benzenesulfonamido-2-[5-(trifluoromethyl)-1,3-benzothiazol-2-yl]ethyl}benzene-1-carboximidamide], the IC50 is over 10 µM.

Take `N=C(N)c1cccc(CC(NS(=O)(=O)c2ccccc2)c2nc3cc(C(F)(F)F)ccc3s2)c1` (centres unmarked) [Compound 12, 3-{2-Benzenesulfonamido-2-[5-(trifluoromethyl)-1,3-benzothiazol-2-yl]ethyl}benzene-1-carboximidamide]: the IC50 was under 10 µM.

In the case of `N=C(N)c1cccc(CC(NS(=O)(=O)c2ccccc2)c2nc3ccc(C(F)(F)F)cc3s2)c1` (single isomer, unassigned) [14 (enantiomer 2)], the IC50 is under 10 µM.

As to `N=C(N)c1cccc(CC(NS(=O)(=O)c2ccccc2)c2nc3cccc(Cl)c3s2)c1` (single isomer, unassigned) [13 (enantiomer 1), 3-[2-Benzenesulfonamido-2-(7-chloro-1,3-benzothiazol-2-yl)ethyl]benzene-1-carboximidamide], the IC50 was over 10 µM. Then `N=C(N)c1cccc(CC(NS(=O)(=O)c2cccc(-c3ccc(Cl)cc3Cl)c2)c2nccs2)c1` (single isomer, unassigned) [5 (Isomer 1, batch 1), 3-[2-{2′,4′-Dichloro-[1,1′-biphenyl]-3-sulfonamido}-2-(1,3-thiazol-2-yl)ethyl]benzene-1-carboximidamide], with under 10 µM.

Regarding `N=C(N)c1cccc(CC(NS(=O)(=O)c2cccc(-c3ccc(Cl)cc3Cl)c2)c2nccs2)c1` (single isomer, unassigned) [Compound 5 (Isomer 3), 3-[2-{2′,4′-Dichloro-[1,1′-biphenyl]-3-sulfonamido}-2-(1,3-thiazol-2-yl)ethyl]benzene-1-carboximidamide], the IC50 is under 10 µM. Under `COCCN(C)c1cccc2nc(C(Cc3cccc(C(=N)N)c3)NS(=O)(=O)c3ccccc3)sc12` (centres unmarked) [Compound 17, 3-(2-Benzenesulfonamido-2-{7-[(2-methoxyethyl)(methyl)amino]-1,3-benzothiazol-2-yl}ethyl)benzene-1-carboximidamide] stands under 10 µM; under `COc1ccc2nc(C(Cc3cccc(C(=N)N)c3)NS(=O)(=O)c3ccccc3)sc2c1` (centres unmarked) [Compound 8, 3-[2-Benzenesulfonamido-2-(6-methoxy-1,3-benzothiazol-2-yl)ethyl]benzene-1-carboximidamide], under 10 µM; under `N=C(N)c1cccc(CC(NS(=O)(=O)c2cccc(-c3ccc(Cl)cc3Cl)c2)c2nc3ccccc3s2)c1` (single isomer, unassigned) [3 (enantiomer 1), 3-[2-(1,3-Benzothiazol-2-yl)-2-{2′,4′-dichloro-[1,1′-biphenyl]-3-sulfonamido}ethyl]benzene-1-carboximidamide], over 10 µM.

For `COc1ccc2nc(C(Cc3cccc(C(=N)N)c3)NS(=O)(=O)c3ccccc3)sc2c1` (single isomer, unassigned) [11 (enantiomer 2), 3-[2-Benzenesulfonamido-2-(6-methoxy-1,3-benzothiazol-2-yl)ethyl]benzene-1-carboximidamide], the IC50 was under 10 µM. Consider `N=C(N)c1cccc(CC(NS(=O)(=O)c2ccccc2)c2nc3c(s2)CNCC3)c1` (centres unmarked) [Compound 10, 3-(2-Benzenesulfonamido-2-{4H,5H,6H,7H-[1,3]thiazolo[5,4-c]pyridin-2-yl}ethyl)benzene-1-carboximidamide], for which the IC50 is over 10 µM. In the case of `N=C(N)c1cccc(CC(NS(=O)(=O)c2ccccc2)c2nc3ccccc3s2)c1` (single isomer, unassigned) [Compound 1 (enantiomer 1, batch 1), 3-[2-Benzenesulfonamido-2-(1,3-benzothiazol-2-yl)ethyl]benzene-1-carboximidamide], the IC50 is over 10 µM. Under `N=C(N)c1cccc(CC(NS(=O)(=O)c2ccccc2)c2nc3cc(C(F)(F)F)ccc3s2)c1` (single isomer, unassigned) [12 (enantiomer 2), 3-{2-Benzenesulfonamido-2-[5-(trifluoromethyl)-1,3-benzothiazol-2-yl]ethyl}benzene-1-carboximidamide] stands under 10 µM; under `COc1ccc2nc(C(Cc3cccc(C(=N)N)c3)NS(=O)(=O)c3ccccc3)sc2c1` (single isomer, unassigned) [11 (enantiomer 1), 3-[2-Benzenesulfonamido-2-(6-methoxy-1,3-benzothiazol-2-yl)ethyl]benzene-1-carboximidamide], over 10 µM; under `N=C(N)c1cccc(CC(NS(=O)(=O)c2ccccc2)c2ncc[nH]2)c1` (centres unmarked) [Compound 7, 2-[2-{3-[Amino(iminiumyl)methyl]phenyl}-1-benzenesulfonamidoethyl]-1H-imidazol-3-ium dichloride], over 10 µM. Under `N=C(N)c1cccc(CC(NS(=O)(=O)c2ccccc2)c2nc3cccc(Cl)c3s2)c1` (single isomer, unassigned) [13 (enantiomer 2), 3-[2-Benzenesulfonamido-2-(7-chloro-1,3-benzothiazol-2-yl)ethyl]benzene-1-carboximidamide] stands under 10 µM. As to `N=C(N)c1cccc(CC(NS(=O)(=O)c2cccc(-c3ccc(Cl)cc3Cl)c2)c2nccs2)c1` (single isomer, unassigned) [Compound 5 (Isomer 2), 3-[2-{2′,4′-Dichloro-[1,1′-biphenyl]-3-sulfonamido}-2-(1,3-thiazol-2-yl)ethyl]benzene-1-carboximidamide], the IC50 was under 10 µM. For the molecule `N=C(N)c1cccc(CC(NS(=O)(=O)c2cccc(-c3ccc(Cl)cc3Cl)c2)c2nc3ccccc3s2)c1` (single isomer, unassigned) [3 (enantiomer 2), 3-[2-(1,3-Benzothiazol-2-yl)-2-{2′,4′-dichloro-[1,1′-biphenyl]-3-sulfonamido}ethyl]benzene-1-carboximidamide], the IC50 was under 10 µM. `N=C(N)c1cccc(CC(NS(=O)(=O)c2ccccc2)c2nc3cccnc3s2)c1` (centres unmarked) [Compound 19, 3-(2-Benzenesulfonamido-2-{[1,3]thiazolo[5,4-b]pyridin-2-yl}ethyl)benzene-1-carboximidamide]: the IC50 was under 10 µM. As to `Cc1ccc2sc(C(Cc3cccc(C(=N)N)c3)NS(=O)(=O)c3ccccc3)nc2c1` (centres unmarked) [Compound 9, 3-[2-Benzenesulfonamido-2-(5-methyl-1,3-benzothiazol-2-yl)ethyl]benzene-1-carboximidamide], the IC50 was under 10 µM. Then `N=C(N)c1cccc(CC(NS(=O)(=O)c2ccccc2)c2nc3ccccc3s2)c1` (single isomer, unassigned) [Compound 1 (enantiomer 2, batch 1), 3-[2-Benzenesulfonamido-2-(1,3-benzothiazol-2-yl)ethyl]benzene-1-carboximidamide], with under 10 µM.

The record behind these values is patent US20240132457A1, “3-(2-(BENZO[D]THIAZOL-2-YL)-2-(PHENYLSUFONAMIDO)ETHYL)BENZIMIDAMIDE DERIVATIVES AND RELATED COMPOUNDS AS TMPRSS2 INHIBITORS FOR THE TREATMENT OF VIRAL INFECTIONS” (INTEGERBIO, INC., priority 2020, published 2024).
